The values that follow come from patent publication US20250145633A1, “SUBSTITUTED FURANOPYRIMIDINE COMPOUNDS AS PDE1 INHIBITORS” (Dart NeuroScience, LLC, priority 2017, published 2025).

The first test addresses human PDE1B enzyme (Homo sapiens (Human), UniProt Q01064). Kind of test: IMAP TR-FRET PDE1B enzymatic assay. Type of test: biochemical. The note with it: negative log of half-maximal molar inhibitory concentration; 200 nM FAM-cAMP; values given as bins. The essentials: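 Full-length GST-tagged human PDE1B (250 pg/well) in IMAP BSA buffer with 10 U/ml calmodulin and 2.5 mM CaCl2; compound pre-incubated 5 min at room temperature, then 200 nM (final) FAM-cAMP for 30 min. IMAP binding reagent/Tb added, 1 h; TR-FRET 520/490 ratio read. IC50 from sigmoidal dose-response fit.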
For the compound `Cc1oc2ncnc(NC3(C)CC3)c2c1C(=O)N1CC=C(c2cnc(F)s2)CC1` [Example 783, 5-[4-(2-Fluoro-1,3-thiazol-5-yl)-1,2,3,6-tetrahydropyridine-1-carbonyl]-6-methyl-N-(1-methylcyclopropyl)furo[2,3-d]pyrimidin-4-amine], the “PDE1b (pIC50)” value is reported as over 8.

For the compound `COc1cnc(C2=CCN(C(=O)c3c(C)oc4ncnc(NC5(C)CC5)c34)CC2)cn1` [Example 784, 5-[4-(5-Methoxypyrazin-2-yl)-1,2,3,6-tetrahydropyridine-1-carbonyl]-6-methyl-N-(1-methylcyclopropyl)furo[2,3-d]pyrimidin-4-amine], the “PDE1b (pIC50)” value was over 8.

Turning to `COc1ccc(C2=CCN(C(=O)c3c(C)oc4ncnc(NC5(C)CC5)c34)CC2)nc1` [Example 785, 5-[4-(5-Methoxypyridin-2-yl)-1,2,3,6-tetrahydropyridine-1-carbonyl]-6-methyl-N-(1-methylcyclopropyl)furo[2,3-d]pyrimidin-4-amine], the “PDE1b (pIC50)” value is over 8.

With `Cc1oc2ncnc(NC3(C)CC3)c2c1C(=O)N1CCc2c(nc(Cl)nc2NC(C)C)C1` [Example 789, 5-{2-Chloro-4-[(propan-2-yl)amino]-5H,6H,7H,8H-pyrido[3,4-d]pyrimidine-7-carbonyl}-6-methyl-N-(1-methylcyclopropyl)furo[2,3-d]pyrimidin-4-amine], the “PDE1b (pIC50)” value is listed as over 8.

For the compound `Cc1cc(F)nc(C2CCN(C(=O)c3c(C)oc4ncnc(NC5(C)CC5)c34)C2)c1` (stereo not shown) [Example 798, 5-[3-(6-Fluoro-4-methylpyridin-2-yl)pyrrolidine-1-carbonyl]-6-methyl-N-(1-methylcyclopropyl)furo[2,3-d]pyrimidin-4-amine], the “PDE1b (pIC50)” value is recorded as over 8.

`Cc1nc(C2CCN(C(=O)c3c(C)oc4ncnc(NC5(C)CC5)c34)C2)ccc1F` (stereo not shown) [Example 799, 5-[3-(5-Fluoro-6-methylpyridin-2-yl)pyrrolidine-1-carbonyl]-6-methyl-N-(1-methylcyclopropyl)furo[2,3-d]pyrimidin-4-amine]: the “PDE1b (pIC50)” value is reported as over 8.

Consider `Cc1nc(C2CCN(C(=O)c3c(C)oc4ncnc(NC5(C)CC5)c34)C2)ncc1F` (stereo not shown) [Example 800, 5-[3-(5-Fluoro-4-methylpyrimidin-2-yl)pyrrolidine-1-carbonyl]-6-methyl-N-(1-methylcyclopropyl)furo[2,3-d]pyrimidin-4-amine], for which the “PDE1b (pIC50)” value was over 8.

As for `Cc1oc2ncnc(NC3(C)CC3)c2c1C(=O)N1CCC(c2cccc(C(F)(F)F)n2)C1` (stereo not shown) [Example 801, 6-Methyl-N-(1-methylcyclopropyl)-5-f{3-[6-(trifluoromethyl)pyridin-2-yl]pyrrolidine-1-carbonyl}furo[2,3-d]pyrimidin-4-amine], the “PDE1b (pIC50)” value is on record as over 8.

`Cc1oc2ncnc(NC3(C)CC3)c2c1C(=O)N1CCC(c2cc(C(F)(F)F)ccn2)C1` (stereo not shown) [Example 802, 6-Methyl-N-(1-methylcyclopropyl)-5-f{3-[4-(trifluoromethyl)pyridin-2-yl]pyrrolidine-1-carbonyl}furo[2,3-d]pyrimidin-4-amine]: the “PDE1b (pIC50)” value is over 8.

In the case of `Cc1oc2ncnc(NC3(C)CC3)c2c1C(=O)N1CCc2c(ncnc2OCC(C)C)C1` [Example 807, 6-Methyl-N-(1-methylcyclopropyl)-5-[4-(2-methylpropoxy)-5H,6H,7H,8H-pyrido[3,4-d]pyrimidine-7-carbonyl]furo[2,3-d]pyrimidin-4-amine], the “PDE1b (pIC50)” value was over 8.

In the case of `Cc1oc2ncnc(NC3(C)CC3)c2c1C(=O)N1CCc2c(ncnc2OCC2CC2)C1` [Example 808, 5-[4-(Cyclopropylmethoxy)-5H,6H,7H,8H-pyrido[3,4-d]pyrimidine-7-carbonyl]-6-methyl-N-(1-methylcyclopropyl)furo[2,3-d]pyrimidin-4-amine], the “PDE1b (pIC50)” value is reported as over 8.

As for `Cc1oc2ncnc(NC3(C)CC3)c2c1C(=O)N1CCc2c(ncnc2OC2CCC2)C1` [Example 810, 5-{4-Cyclobutoxy-5H,6H,7H,8H-pyrido[3,4-d]pyrimidine-7-carbonyl}-6-methyl-N-(1-methylcyclopropyl)furo[2,3-d]pyrimidin-4-amine], the “PDE1b (pIC50)” value is reported as over 8.

Staying with this test, now noted: negative log of half-maximal molar inhibitory concentration; 200 nM FAM-cAMP; values given as bins; read-out: PDE1b (pIC50) (converted).
In the case of `Cc1oc2ncnc(NC3(C)CC3)c2c1C(=O)N1CCc2c(ncnc2N2CC[C@H](F)C2)C1` [Example 786, 5-{4-[(3S)-3-Fluoropyrrolidin-1-yl]-5H,6H,7H,8H-pyrido[3,4-d]pyrimidine-7-carbonyl}-6-methyl-N-(1-methylcyclopropyl)furo[2,3-d]pyrimidin-4-amine], the IC50 was 10 to 100 nM.

Turning to `Cc1oc2ncnc(NC3(C)CC3)c2c1C(=O)N1CCc2c(ncnc2N2CCOCC2)C1` [Example 787, 6-Methyl-N-(1-methylcyclopropyl)-5-[4-(morpholin-4-yl)-5H,6H,7H,8H-pyrido[3,4-d]pyrimidine-7-carbonyl]furo[2,3-d]pyrimidin-4-amine], the IC50 is 10 to 100 nM.

Turning to `Cc1oc2ncnc(NC3(C)CC3)c2c1C(=O)N1CCc2c(ncnc2N2CC(F)C2)C1` [Example 788, 5-[4-(3-Fluoroazetidin-1-yl)-5H,6H,7H,8H-pyrido[3,4-d]pyrimidine-7-carbonyl]-6-methyl-N-(1-methylcyclopropyl)furo[2,3-d]pyrimidin-4-amine], the IC50 was 10 to 100 nM.

Take `Cc1oc2ncnc(NC3(C)CC3)c2c1C(=O)N1CCc2c(ncnc2N(C)C2CC2)C1` [Example 790, 5-{4-[Cyclopropyl(methyl)amino]-5H,6H,7H,8H-pyrido[3,4-d]pyrimidine-7-carbonyl}-6-methyl-N-(1-methylcyclopropyl)furo[2,3-d]pyrimidin-4-amine]: the IC50 was 10 to 100 nM.

In the case of `Cc1oc2ncnc(NC3(C)CC3)c2c1C(=O)N1CCc2c(ncnc2N(C)C)C1` [Example 791, 5-[4-(Dimethylamino)-5H,6H,7H,8H-pyrido[3,4-d]pyrimidine-7-carbonyl]-6-methyl-N-(1-methylcyclopropyl)furo[2,3-d]pyrimidin-4-amine], the IC50 is 10 to 100 nM.

For `CNc1ncnc2c1CCN(C(=O)c1c(C)oc3ncnc(NC4(C)CC4)c13)C2` [Example 792, 6-Methyl-5-[4-(methylamino)-5H,6H,7H,8H-pyrido[3,4-d]pyrimidine-7-carbonyl]-N-(1-methylcyclopropyl)furo[2,3-d]pyrimidin-4-amine], the IC50 is 10 to 100 nM.

In the case of `Cc1oc2ncnc(NC3(C)CC3)c2c1C(=O)N1CCc2c(ncnc2N(C)C2CCOCC2)C1` [Example 793, 6-Methyl-5-{4-[methyl(oxan-4-yl)amino]-5H,6H,7H,8H-pyrido[3,4-d]pyrimidine-7-carbonyl}-N-(1-methylcyclopropyl)furo[2,3-d]pyrimidin-4-amine], the IC50 was 10 to 100 nM.

In the case of `Cc1oc2ncnc(NC3(C)CC3)c2c1C(=O)N1CCc2c(ncnc2NC2CCOCC2)C1` [Example 794, 6-Methyl-N-(1-methylcyclopropyl)-5-f{4-[(oxan-4-yl)amino]-5H,6H,7H,8H-pyrido[3,4-d]pyrimidine-7-carbonyl}furo[2,3-d]pyrimidin-4-amine], the IC50 was 10 to 100 nM.

As to `COCC1(Nc2ncnc3c2CCN(C(=O)c2c(C)oc4ncnc(NC5(C)CC5)c24)C3)CC1` [Example 795, 5-(4-{[1-(Methoxymethyl)cyclopropyl]amino}-5H,6H,7H,8H-pyrido[3,4-d]pyrimidine-7-carbonyl)-6-methyl-N-(1-methylcyclopropyl)furo[2,3-d]pyrimidin-4-amine], the IC50 is 10 to 100 nM.

With `Cc1oc2ncnc(NC3(C)CC3)c2c1C(=O)N1CCc2c(ncnc2NC2(C)CC2)C1` [Example 796, 6-Methyl-N-(1-methylcyclopropyl)-5-{4-[(1-methylcyclopropyl)amino]-5H,6H,7H,8H-pyrido[3,4-d]pyrimidine-7-carbonyl}furo[2,3-d]pyrimidin-4-amine], the IC50 was 10 to 100 nM.

In the case of `Cc1oc2ncnc(NC3(C)CC3)c2c1C(=O)N1CCC(c2ccc(OCCF)cc2)C1` (stereo not shown) [Example 797, 5-{3-[4-(2-Fluoroethoxy)phenyl]pyrrolidine-1-carbonyl}-6-methyl-N-(1-methylcyclopropyl)furo[2,3-d]pyrimidin-4-amine], the IC50 is 10 to 100 nM.

`Cc1oc2ncnc(NC3(C)CC3)c2c1C(=O)N1CCc2c(ncnc2C2CCOCC2)C1` [Example 803, 6-Methyl-N-(1-methylcyclopropyl)-5-[4-(oxan-4-yl)-5H,6H,7H,8H-pyrido[3,4-d]pyrimidine-7-carbonyl]furo[2,3-d]pyrimidin-4-amine]: the IC50 is 10 to 100 nM.

On to `C=C(C)c1ncnc2c1CCN(C(=O)c1c(C)oc3ncnc(NC4(C)CC4)c13)C2` [Example 804, 6-Methyl-N-(1-methylcyclopropyl)-5-[4-(prop-1-en-2-yl)-5H,6H,7H,8H-pyrido[3,4-d]pyrimidine-7-carbonyl]furo[2,3-d]pyrimidin-4-amine], for which the IC50 was 10 to 100 nM.

`Cc1oc2ncnc(NC3(C)CC3)c2c1C(=O)N1CCc2c(ncnc2C2CC2)C1` [Example 805, 5-{4-Cyclopropyl-5H,6H,7H,8H-pyrido[3,4-d]pyrimidine-7-carbonyl}-6-methyl-N-(1-methylcyclopropyl)furo[2,3-d]pyrimidin-4-amine]: the IC50 was 10 to 100 nM.

As to `CCCOc1ncnc2c1CCN(C(=O)c1c(C)oc3ncnc(NC4(C)CC4)c13)C2` [Example 806, 6-Methyl-N-(1-methylcyclopropyl)-5-f{4-propoxy-5H,6H,7H,8H-pyrido[3,4-d]pyrimidine-7-carbonyl}furo[2,3-d]pyrimidin-4-amine], the IC50 was 10 to 100 nM.

Turning to `COCCOc1ncnc2c1CCN(C(=O)c1c(C)oc3ncnc(NC4(C)CC4)c13)C2` [Example 809, 5-[4-(2-Methoxyethoxy)-5H,6H,7H,8H-pyrido[3,4-d]pyrimidine-7-carbonyl]-6-methyl-N-(1-methylcyclopropyl)furo[2,3-d]pyrimidin-4-amine], the IC50 was 10 to 100 nM.
